Consider 81 compounds from patent US5585492A, “LTA4 Hydrolase inhibitors” (priority 1994, dated 1996).

This experiment concerns LTB4 production in human blood. Kind of experiment: Inhibition of Calcium Ionophore-Induced LTB4 Production in Human Blood (HWB). Type of experiment: cell-based. As to conditions: Homo sapiens, human whole blood, A23187 20 mcg/ml; read-out: Inhibition of Calcium Ionophore-Induced LTB4 Production in Human Blood IC50 HWB. The protocol: One or more concentrations of the leukotriene A4 hydrolass inhibitor compounds being tested were prepared (diluted in DMSO) and 2 μl added and gently mixed with the diluted whole blood. After incubating for 15 minutes at 37° C. in a humidified incubator, calcium ionophore A23187 (Sigma Chemical Co., St. Louis, Mo.) was added to a final concentration of 20 mcg/ml and the incubation continued under the same conditions for an additional 10 minutes to allow LTB4 formation. The reaction was terminated by centrifugation (833 g, 10 minutes at 4° C.) and supernatant were analyzed for LTB4 and thromboxane by commercially available enzyme-linked immunoassays (Caymen Chemical Co., Ann Arbor, Mich.) according to the manufacturer's instructions. The IC50 of each test compound was determined from the amount of inhibition of LTB4 production as compared to an essentially identical assay in which no inhibitor compound was present.

The term IC50 denotes the midpoint of a concentration-inhibition curve. With `NC(=O)C1CCN(CC2Cc3cc(Oc4ccccc4)ccc3O2)CC1` (stereo not drawn) [Example 290], the IC50 is 528 nM.

With `CCOC(=O)C1CCN(CC2Cc3cc(Oc4ccccc4)ccc3O2)CC1` (stereo not drawn) [Example 291], the IC50 worked out at 1850 nM.

For the compound `c1ccc(Cc2ccc3c(c2)CCC(CN2CCCC2)O3)cc1` (stereo not drawn) [Example 292], the IC50 was 52 nM.

For the compound `NC(=O)C1CCN(CC2CCc3cc(Cc4ccccc4)ccc3O2)CC1` (stereo not drawn) [Example 293], the IC50 was determined as 3200 nM.

As to `CC(=O)N1CCN(CC2Cc3cc(Cc4ccccc4)ccc3O2)CC1` (stereo not drawn) [Example 294], the IC50 came out at 340 nM.

Consider `CNC(=O)C1CCN(CC2Cc3cc(Cc4ccccc4)ccc3O2)CC1` (stereo not drawn) [Example 295], for which the IC50 stood at 604 nM.

For `CNC(=O)C1CCN(CC2Cc3cc(Oc4ccccc4)ccc3O2)CC1` (stereo not drawn) [Example 296], the IC50 was 512 nM.

For the compound `CCOC(=O)CC1CCN(CCOc2ccc(Oc3ccccc3)cc2)CC1` [Example 300], the IC50 was determined as 2510 nM.

As for `CCOC(=O)CC1CCN(CCOc2ccc(Cc3ccccc3)cc2)CC1` [Example 301], the IC50 was determined as 828 nM.

As to `CCOC(=O)CC1CCN(CCCOc2ccc(Cc3ccccc3)cc2)CC1` [Example 302], the IC50 is 2400 nM.

For the compound `COC(=O)C1(O)CCN(CCOc2ccc(Cc3ccccc3)cc2)CC1` [Example 305], the IC50 was found to be 1230 nM.

Turning to `CCOC(=O)C1CCN(CCOc2ccc(Cc3cccc(F)c3)cc2)CC1` [Example 309], the IC50 is 1770 nM.

On to `CCOC(=O)C1CCN(CCOc2ccc(Cc3cccs3)cc2)CC1` [Example 310], for which the IC50 is 1350 nM.

For the compound `CC(=O)N[C@H]1C[C@@H](C)N(CCOc2ccc(Cc3ccccc3)cc2)[C@@H](C)C1` [Example 315], the IC50 turned out to be 648 nM.

With `C[C@@H]1C[C@H](C(N)=O)C[C@H](C)N1CCOc1ccc(Cc2ccccc2)cc1` [Example 316], the IC50 came to 131 nM.

As for `CCOC(=O)C1C2CN(CCOc3ccc(Cc4ccccc4)cc3)CC21` (stereo not drawn) [Example 325], the IC50 is 2400 nM.

On to `NC(=O)N1CCN(CC2Cc3cc(Cc4ccccc4)ccc3O2)CC1` (stereo not drawn) [Example 337], for which the IC50 worked out at 628 nM.

As for `c1ccc(Cc2ccc(OCCn3cnc4ccccc43)cc2)cc1` [Example 339], the IC50 turned out to be 13100 nM.

Turning to `c1ccc(Cc2ccc(OCCCn3cnc4cccnc43)cc2)cc1` [Example 341A], the IC50 came out at 8900 nM.

Turning to `c1ccc(Cc2ccc(OCCCn3cnc4ncccc43)cc2)cc1` [Example 341B], the IC50 turned out to be 930 nM.

For the compound `c1ccc(Cc2ccc(OCCn3ccc4ncccc43)cc2)cc1` [Example 342], the IC50 came out at 2120 nM.

Take `c1ccc(Oc2ccc(OCCn3cnc4ccccc43)cc2)cc1` [Example 344]: the IC50 amounted to 13500 nM.

Take `c1ccc(COc2ccc(OCCn3cnc4ncccc43)cc2)cc1` [Example 346B]: the IC50 was 3570 nM.

As for `c1ccc(COc2ccc(OCCn3cccc4ncnc3-4)cc2)cc1` [Example 346C], the IC50 turned out to be 6690 nM.

`c1ccc(COc2ccc(OCCn3cnc4ccncc43)cc2)cc1` [Example 347A]: the IC50 amounted to 7050 nM.

`c1ccc(COc2ccc(OCCn3cnc4cnccc43)cc2)cc1` [Example 347B]: the IC50 worked out at 5700 nM.

On to `c1ccc(COc2ccc(OCCn3ccc4ncnc-4c3)cc2)cc1` [Example 347C], for which the IC50 was determined as 380 nM.

On to `c1ccc(Oc2ccc(OCCn3cnc4cccnc43)cc2)cc1` [Example 348A], for which the IC50 worked out at 5700 nM.

For `c1ccc(Oc2ccc(OCCn3cnc4ncccc43)cc2)cc1` [Example 348B], the IC50 was 560 nM.

In the case of `c1ccc(Oc2ccc(OCCn3cccc4ncnc3-4)cc2)cc1` [Example 348C], the IC50 stood at 540 nM.

With `c1ccc(Oc2ccc(OCCn3cnc4ccncc43)cc2)cc1` [Example 349A], the IC50 came to 790 nM.

With `c1ccc(Oc2ccc(OCCn3cnc4cnccc43)cc2)cc1` [Example 349B], the half-maximal inhibitory concentration (IC50) was 320 nM.

Consider `c1ccc(Oc2ccc(OCCn3ccc4ncnc-4c3)cc2)cc1` [Example 349C], for which the IC50 is 200 nM.

On to `c1ccc(Oc2ccc(OCCCn3cnc4cccnc43)cc2)cc1` [Example 350A], for which the IC50 came out at 13600 nM.

Consider `c1ccc(Oc2ccc(OCCCn3cnc4ncccc43)cc2)cc1` [Example 350B], for which the half-maximal inhibitory concentration (IC50) stood at 950 nM.

As for `c1ccc(Oc2ccc(OCCCn3cccc4ncnc3-4)cc2)cc1` [Example 350C], the IC50 amounted to 1670 nM.

Take `c1ccc(Oc2ccc(OCCCn3cnc4ccncc43)cc2)cc1` [Example 351A]: the IC50 was determined as 2720 nM.

With `c1ccc(Oc2ccc(OCCCn3cnc4cnccc43)cc2)cc1` [Example 351B], the IC50 amounted to 2050 nM.

For `c1ccc(Oc2ccc(OCCCn3ccc4ncnc-4c3)cc2)cc1` [Example 351C], the IC50 is 360 nM.

Turning to `Fc1ccc(Oc2ccc(OCCn3cnc4ncccc43)cc2)cc1` [Example 354B], the IC50 was determined as 600 nM.

Consider `Fc1ccc(Oc2ccc(OCCn3cccc4ncnc3-4)cc2)cc1` [Example 354C], for which the IC50 was 1180 nM.

Take `Fc1ccc(Oc2ccc(OCCn3cnc4ccncc43)cc2)cc1` [Example 355A]: the IC50 was determined as 2230 nM.

Turning to `Fc1ccc(Oc2ccc(OCCn3cnc4cnccc43)cc2)cc1` [Example 355B], the IC50 worked out at 910 nM.

In the case of `Fc1ccc(Oc2ccc(OCCn3ccc4ncnc-4c3)cc2)cc1` [Example 355C], the IC50 was 210 nM.

In the case of `c1ccc(Cc2ccc(OCCCn3cnc4ccncc43)cc2)cc1` [Example 356A], the IC50 is 1280 nM.

With `c1ccc(Cc2ccc(OCCCn3cnc4cnccc43)cc2)cc1` [Example 356B], the IC50 came to 750 nM.

As to `c1ccc(Cc2ccc(OCCCn3ccc4ncnc-4c3)cc2)cc1` [Example 356C], the IC50 is 340 nM.

As to `c1ccc(Cc2ccc3c(c2)CC(Cn2cnc4ccncc42)O3)cc1` (stereo not drawn) [Example 358A], the IC50 was found to be 152 nM.

For the compound `c1ccc(Cc2ccc3c(c2)CC(Cn2cccc4ncnc2-4)O3)cc1` (stereo not drawn) [Example 359C], the IC50 came out at 4200 nM.

Take `[O-][n+]1cccc2c1ncn2CCOc1ccc(Cc2ccccc2)cc1` [Example 363]: the IC50 stood at 57 nM.

With `NC(=O)C1CCN(CCOc2ccc(Cc3ccccc3)s2)CC1` [Example 369], the IC50 amounted to 1530 nM.

On to `O=C(O)C1CCN(CCOc2ccc(Cc3ccccc3)s2)CC1` [Example 371], for which the IC50 amounted to 650 nM.

In the case of `OCC1CCCN1CCOc1ccc(Cc2ccccc2)cc1` (stereo not drawn) [Example 385], the IC50 was 210 nM.

Turning to `CC1CCC(C)N1CCOc1ccc(Cc2ccccc2)cc1` (stereo not drawn) [Example 399], the IC50 came to 220 nM.

For the compound `CC(CN1CCCCC1)Oc1ccc(Cc2ccccc2)cc1` (stereo not drawn) [Example 403], the IC50 amounted to 3800 nM.

Consider `CC(CN1CCCCCC1)Oc1ccc(Cc2ccccc2)cc1` (stereo not drawn) [Example 404], for which the IC50 came out at 2750 nM.

For the compound `CCC(CN1CCCC1)Oc1ccc(Cc2ccccc2)cc1` (stereo not drawn) [Example 405], the IC50 came to 2010 nM.

Turning to `c1ccc(Cc2ccc(OC(Cc3ccccc3)CN3CCCC3)cc2)cc1` (stereo not drawn) [Example 406], the IC50 was determined as 4000 nM.

For the compound `C#CC(CC(=O)OCC)NCCCOc1ccc(Cc2ccccc2)cc1` (stereo not drawn) [Example 407], the IC50 came to 707 nM.

Take `COC(=O)CCN(C)CCCOc1ccc(Cc2ccccc2)cc1` [Example 413]: the half-inhibitory concentration (IC50) is 42 nM.

As to `CCOC(=O)CCN(CCCOc1ccc(Cc2ccccc2)cc1)Cc1cccnc1` [Example 414], the IC50 is 830 nM.

For `CC(C)(O)CCNCCCOc1ccc(Cc2ccccc2)cc1` [Example 416], the concentration for half-maximal inhibition (IC50) is 1970 nM.

In the case of `NNC(=O)C1CCN(CCOc2ccc(Cc3ccccc3)cc2)CC1` [Example 419], the 50% inhibitory concentration (IC50) was determined as 120 nM.

Turning to `NC(=O)CCNC(=O)C1CCN(CCOc2ccc(Cc3ccccc3)cc2)CC1` [Example 421], the IC50 came to 800 nM.

As to `CNC(=O)CCNCCCOc1ccc(Cc2ccccc2)cc1` [Example 422], the IC50 turned out to be 660 nM.

Regarding `NC(=O)CCNCCCOc1ccc(Cc2ccccc2)cc1` [Example 423], the IC50 was determined as 700 nM.

Turning to `O=C(CCNCCCOc1ccc(Cc2ccccc2)cc1)N1CCOCC1` [Example 424], the IC50 was determined as 850 nM.

On to `NC(=O)C1(O)CCN(CCOc2ccc(Cc3ccccc3)cc2)CC1` [Example 427], for which the IC50 was 532 nM.

As to `O=C(Nc1ccccc1)OC[C@@H]1CCCN1CCOc1ccc(Cc2ccccc2)cc1` [Example 428], the IC50 is 6600 nM.

With `O=C(O)[C@@H]1CCCN1CCCOc1ccc(Cc2ccccc2)cc1` [Example 430], the half-maximal inhibitory concentration (IC50) is 290 nM.

Regarding `CC(CN(C)CCCOc1ccc(Cc2ccccc2)cc1)C(=O)O` (stereo not drawn) [Example 432], the IC50 is 630 nM.

Regarding `O=C(O)C1C2CN(CCOc3ccc(Cc4ccccc4)cc3)CC21` (stereo not drawn) [Example 435], the concentration for half-maximal inhibition (IC50) amounted to 86 nM.

On to `O=C(O)C1CCN(CCOc2ccc(Cc3cccc(F)c3)cc2)CC1` [Example 436], for which the IC50 was found to be 550 nM.

`O=C(O)C1CCN(CCOc2ccc(Cc3cccs3)cc2)CC1` [Example 437]: the IC50 is 693 nM.

On to `CC1CC(C#N)CCN1CCOc1ccc(Cc2ccccc2)cc1` (stereo not drawn) [Example 444], for which the IC50 turned out to be 900 nM.

For the compound `CC1CC(C(N)=NO)CCN1CCOc1ccc(Cc2ccccc2)cc1` (stereo not drawn) [Example 445], the IC50 stood at 367 nM.

Consider `NC(=NO)C1CCN(CC2Cc3cc(Cc4ccccc4)ccc3O2)CC1` (stereo not drawn) [Example 446], for which the IC50 was 160 nM.

For the compound `O=c1[nH]c(C2CCN(CCOc3ccc(Cc4ccccc4)cc3)CC2)no1` [Example 448], the IC50 turned out to be 825 nM.

As to `N=C(N)C1CCN(CCOc2ccc(Cc3ccccc3)cc2)CC1` [Example 449], the 50% inhibitory concentration (IC50) came out at 913 nM.

For `O=C(CCl)NC1CCN(CCOc2ccc(Cc3ccccc3)cc2)C1` (stereo not drawn) [Example 454], the IC50 was determined as 610 nM.

In the case of `NC1CCN(CCOc2ccc(Cc3ccccc3)cc2)CC1` [Example 455], the IC50 was found to be 180 nM.
